Here are results for two molecules from paper PMC11487190 (2024).

Series [1] has as its system semi-synthetic tbpA aptamer (residues 1-89 + 3' anchoring sequence) (RNA, riboswitch, azide-modified U at 14 (clicked to Cy5)) GUUCUCAACGGGGUGCCACGCGUACGCGUGCGCUGAGAAAAUACCCGUCGAACCUGAUCCGGAUAACGCCGGCGAAGGGAUUUGAGGCUCCCCGGCCCCCCGGCC
As to the kind of experiment: smFRET (TIRF). Conditions: 20 mM MgCl2, 20 mM NaCl; 1 mM TPP; folded state 14% to 48%; Tris-HCl buffer, pH 7.5.

Another series concerns 30S ribosomal subunit. As to the kind of experiment: toeprint (primer extension). Particulars: tRNA-fMet, with TPP; Toeprint buffer, salt, pH and temperature not given in the material; scale: fold decrease of toeprint efficiency vs no TPP.

Turning to `Cc1ncc(C[n+]2csc(CCOP(=O)(O)OP(=O)(O)O)c2C)c(N)n1`, the binding entry in series [1] is reported as “yes”.
In the case of “tbpA riboswitch nascent transcript (toeprint)”, the binding signal with 30S ribosomal subunit was found to be 2.2.
